From patent US10668000B2, “Peptides, compositions comprising them and uses in particular cosmetic uses” (SEDERMA, priority 2014, dated 2020)
Like-named read-outs stand apart in the source and are kept apart here. Where a SMILES comes first, the peptide text is derived from it. The star is where a group is joined. Myristoyl = CCCCCCCCCCCCCC(=O)*

Tests used:
Collagen I [1] = assay: ELISA assay of collagen I synthesis in normal human fibroblasts; assay type: cell-based; conditions: NHF, 72 h
Procedure: (§1) Normal human fibroblasts (NHF) in culture are contacted with the products to be tested or their excipient (negative control) for 72 h. After the contact, the culture supernatants are removed and the synthesis of dermal macromolecules are estimated by ELISA assays. An estimation of cell viability is performed by Hoechst assay and used to weight the obtained data.

Collagen IV = assay: ELISA assay of collagen IV synthesis in normal human fibroblasts; assay type: cell-based; conditions: NHF, 72 h
Procedure: as §1

Fibronectin = assay: ELISA assay of fibronectin synthesis in normal human fibroblasts; assay type: cell-based; conditions: NHF, 72 h
Procedure: as §1

Laminin = assay: ELISA assay of laminin synthesis in normal human fibroblasts; assay type: cell-based; conditions: NHF, 72 h
Procedure: as §1

Elastin [2] = assay: ELISA assay of elastin synthesis in normal human fibroblasts; assay type: cell-based; conditions: NHF, 72 h
Procedure: as §1

Collagen I [3] = assay: Immunofluorescence dosage of collagen I in normal human fibroblasts; assay type: cell-based; conditions: NHF, 6 days
Procedure: (§2) Normal human fibroblasts (NHF) are cultured for 24 h. The cells are contacted or not with the products to be tested or their excipient at various concentrations for 6 days for the collagen I or 14 days for elastin (DMEMc 5% FCS). The synthesis of collagen I and elastin produced by the cells in the form of extracellular matrix is then quantified by immuno-marking on the fixed layers. A counting of the nuclei labeled with Hoechst is performed in parallel in order to have an estimate of the viability and in order to weight the data.

Elastin [4] = assay: Immunofluorescence dosage of elastin in normal human fibroblasts; assay type: cell-based; conditions: NHF, 14 days
Procedure: as §2

neutral lipids = assay: Marking of neutral lipids with red oil in keratinocytes; assay type: cell-based, human; conditions: for Neutral lipids % variation: red oil marking, human keratinocytes
Source text: (§3) Human keratinocytes are brought to just confluence in KSFMc medium. The contact with the actives and therefore their evaluation is then done in KSFMc medium alone or with calcium (0.8 mm)*. Visual evaluation of differentiation takes place after several days of contact (2, 4, 8 days/3, 5 and 7 for example). * Calcium differentiation allows the creation of link structure between the cells which leads to a better attachment of the basal layers.
On the same cultures as presented before, a marking of neutral lipids with red oil is realised on the fixed layers. Quantification by image analysis is used to estimate lipid synthesis in keratinocytes. A counter-colouration of the nucleus using Hoechst dye is used to weight the obtained data.

filaggrin 1 = assay: Filaggrin 1 immunolabeling in keratinocytes; assay type: cell-based, human; conditions: for Filagrin 1 % variation: immunolabeling, human keratinocytes
Source text: as §3
(§4) On the same cultures as those presented before, immunolabeling of filaggrin 1 and ceramides are realised on layers fixed with specific antibodies. Quantification by image analysis is used to estimate the synthesis of these targets in keratinocytes. A counter-colouration of the nucleus using Hoechst dye is used to weight the obtained data.

Ceramide 2 = Ceramide 2 immunolabeling in keratinocytes; assay type: cell-based, human; conditions: for Ceramide 2 % variation: immunolabeling, human keratinocytes
Source text: as §3, §4

collagen = conditions: cited from earlier work
[5] = at the level of the differentiation networks

Compound: CCCCCCCCCCCCCC(=O)N1CCC[C@H]1C(=O)N1CCC[C@H]1C(=O)N[C@@H](CC(C)C)C(=O)O [Myr-PPL-OH, myristoyl-prolyl-prolyl-leucine] (Myristoyl-Pro-Pro-Leu-OH)
- Collagen I % change/control (Collagen I [1]; 1 ppm): +34%
- Collagen I % change/control (Collagen I [1]; 3 ppm): +59%
- Collagen I % change/control (Collagen I [1]; 5 ppm): +87%
- Collagen IV % change/control (Collagen IV; 1 ppm): +38%
- Collagen IV % change/control (Collagen IV; 3 ppm): +51%
- Collagen IV % change/control (Collagen IV; 5 ppm): +83%
- Collagen IV % change/control (Collagen IV; 7 ppm): +159%
- Fibronectin % change/control (Fibronectin; 3 ppm): +73%
- Fibronectin % change/control (Fibronectin; 5 ppm): +41%
- Fibronectin % change/control (Fibronectin; 7 ppm): +66%
- Laminin % change/control (Laminin; 1 ppm): +29%
- Laminin % change/control (Laminin; 3 ppm): +83%
- Laminin % change/control (Laminin; 5 ppm): +53%
- Laminin % change/control (Laminin; 7 ppm): +41%
- Elastin % change/control (Elastin [2]; 5 ppm): +86%
- Elastin % change/control (Elastin [2]; 7 ppm): +137%
- Collagen I % change/control (Collagen I [3]; 3 ppm): +68%
- Collagen I % change/control (Collagen I [3]; 7 ppm): +95%
- Elastin % change/control (Elastin [4]; 2 ppm): +183%
- Elastin % change/control (Elastin [4]; 3 ppm): +259%
- Elastin % change/control (Elastin [4]; 7 ppm): +145%
- Neutral lipids % variation (neutral lipids; 4 ppm): +394 (p < 0.01) %
- Neutral lipids % variation (neutral lipids; 6 ppm): +570 (p < 0.01) %
- neutral lipids in the human keratinocytes (neutral lipids; [5]): increases
- Filagrin 1 % variation (filaggrin 1; 2 ppm): +564 (p < 0.01) %
- Filagrin 1 % variation (filaggrin 1; 4 ppm): +840 (p < 0.01) %
- Filagrin 1 % variation (filaggrin 1; 6 ppm): +172 (p < 0.01) %
- filaggrin 1 in the human keratinocytes (filaggrin 1; [5]): increases
- Ceramide 2 % variation (Ceramide 2; 2 ppm): +137 (nsd) %
- Ceramide 2 % variation (Ceramide 2; 4 ppm): +240 (p < 0.01) %
- Ceramide 2 % variation (Ceramide 2; 6 ppm): +268 (p < 0.01) %
- ceramides in the human keratinocytes (Ceramide 2; [5]): increases

Compound: Asn-Ile-Pro-Pro-Leu (NIPPL) [pentapeptide of WO 2010/071132 derived from fermented milk]
- collagen production by fibroblastes with regard to the control (collagen; concentration of about 55 ppm): about +30%

Compound: Ile-Pro-Pro-Leu (IPPL) [tetrapeptide of WO 2010/071132 derived from fermented milk]
- collagen production by fibroblastes with regard to the control (collagen; concentration of about 44 ppm): about +10%
